# Reference: publication PMC3119515 (Bioorganic & medicinal chemistry, 2011)
# Tests used:
# [1] = tested on: Yellow Fever Virus (YF-IRES-Luc); test: microbe, parasite or virus in culture; type: cell-based
# fire-fly luciferase = fire-fly luciferase (Photinus pyralis, UniProt P08659, K549A/L550V/N119G/N50D/S548I); test: Direct luciferase inhibition assay; type: cell-based; conditions: cells transfected with luciferase-pcDNA3; data not shown
# [2] = In vitro hydrolytic stability assay utilizing rat plasma
# uninfected BHK cells = type: cell-based, hamster
# Sequence of fire-fly luciferase (P08659 whole entry N50D/N119G/S548I/K549A/L550V): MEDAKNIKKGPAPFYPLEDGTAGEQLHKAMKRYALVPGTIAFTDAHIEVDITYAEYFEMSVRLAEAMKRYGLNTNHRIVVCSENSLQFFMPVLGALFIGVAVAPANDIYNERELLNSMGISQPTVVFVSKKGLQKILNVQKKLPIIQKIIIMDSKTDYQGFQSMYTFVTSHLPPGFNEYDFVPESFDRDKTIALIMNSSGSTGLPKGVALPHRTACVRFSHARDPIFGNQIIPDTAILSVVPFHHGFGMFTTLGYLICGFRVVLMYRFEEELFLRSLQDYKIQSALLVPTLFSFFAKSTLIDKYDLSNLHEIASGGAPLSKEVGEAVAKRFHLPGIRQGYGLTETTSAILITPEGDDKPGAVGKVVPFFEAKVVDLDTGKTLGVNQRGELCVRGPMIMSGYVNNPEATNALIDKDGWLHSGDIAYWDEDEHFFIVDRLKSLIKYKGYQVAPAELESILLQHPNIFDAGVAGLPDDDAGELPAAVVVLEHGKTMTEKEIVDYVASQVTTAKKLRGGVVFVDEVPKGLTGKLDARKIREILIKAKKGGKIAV
compound,measurement,setting,value
COC(=O)c1sc(-c2ccc(C(C)(C)C)cc2)nc1C [Compound 5l],antiflaviviral activity (in words),[1],inactive
COC(=O)c1sc(Cc2ccccc2)nc1C [Compound 5o],antiflaviviral activity (in words),[1],inactive
"COC(=O)c1sc(-c2ccccc2)nc1C(Br)Br [Compound 6a, Methyl 4-(Dibromomethyl)-2-phenylthiazole-5-carboxylate]",antiflaviviral activity (in words),[1],very weak antiflaviviral inhibitory activity
"COC(=O)c1sc(-c2cccc(Br)c2)nc1C(Br)Br [Compound 6c, Methyl 2-(3-Bromophenyl)-4-(dibromomethyl)thiazole-5-carboxylate]",antiflaviviral activity (in words),[1],weak activity
"COC(=O)c1sc(-c2ccc(Cl)c(Cl)c2)nc1C(Br)Br [Compound 6j, Methyl 4-(Dibromomethyl)-2-(3,4-dichlorophenyl)thiazole-5-carboxylate]",inhibition at 50 µM,"[1]; Yellow fever virus, BHK, read-out: % Inhibition (reduction in luciferase activity)",< 50%
"CCCCc1ccc(-c2nc(C)c(C(=O)O)s2)cc1 [Compound 8, 2-(4-Butylphenyl)-4-methylthiazole-5-carboxylic Acid]",antiflaviviral activity (in words),[1],inactive
"CCCCc1ccc(-c2nc(C)c(/C(C)=N/NC(=N)N)s2)cc1 [Compound 12, 2-(1-(2-(4-Butylphenyl)-4-methylthiazol-5-yl)ethylidene)hydrazinecarboximidamide]",reduction of luciferase activity,fire-fly luciferase,No reduction of luciferase activity was observed
same,"half-life, times higher than the lead compound 2",[2],around 6 times
Methyl 4-Methyl-2-(naphthalen-2-yl)thiazole-5-carboxylate [Compound 5k],EC50,[1],35.7 ± 22.7 µM
same,% Inhibition (reduction in luciferase activity),[1]; 50 µM,78.4%
same,GI50,uninfected BHK cells,434 ± 23.3 µM
